This passage reports MIC results from ChEMBL document CHEMBL1123701, “Synthesis and quantitative structure-activity relationship analysis of N-triiodoallyl- and N-iodopropargylazoles. New antifungal agents” (1987).

Values after ≈ are worked out from the molar mass of the structure shown. Where only a bound is given, the exact number is not on record here.

The test system of one experiment is Aspergillus fumigatus. Put plainly: Antifungal activity against Aspergillus fumigatus Saito strain. Format: functional.
The test system of the next experiment is Candida albicans. Put plainly: Antifungal activity against Candida albicans C-A-24 strain. Format: functional.
The subject of the next experiment is Cryptococcus neoformans. The experiment can be described thus: Antifungal activity against Cryptococcus neoformans Cr-1 strain. Format: functional.
In experiment [1] the test system is Trichophyton interdigitale. The experiment can be described thus: Antifungal activity towards Trichophyton interdigitale. It is filed as functional.
Another experiment has as its system Trichophyton benhamiae. The experiment can be described thus: Antifungal activity towards Trichophyton mentagrophytes 530324 strain. It is filed as functional, Arthroderma benhamiae.

Usually MIC stands for the lowest concentration found to suppress growth. A higher MIC goes with a need for much substance. Turning to `COc1ccc(-c2nnn(CC(I)=C(I)I)n2)cc1`, the minimum inhibitory concentration (MIC) in the experiment with Aspergillus fumigatus is 25 µg/mL (≈ 42.1 µM); with Candida albicans, above 100 µg/mL; in the experiment on Cryptococcus neoformans, above 100 µg/mL; in experiment [1], above 100 µg/mL; in the experiment with Trichophyton benhamiae, 25 µg/mL (≈ 42.1 µM).

As for `Clc1cccc(-c2nnn(CC#CI)n2)c1`, the minimum inhibitory concentration (MIC) turned out to be 0.78 µg/mL (≈ 2.26 µM) against Aspergillus fumigatus; 0.78 µg/mL (≈ 2.26 µM) against Candida albicans; 0.39 µg/mL (≈ 1.13 µM) against Cryptococcus neoformans; 0.1 µg/mL (≈ 0.29 µM) in experiment [1]; 0.1 µg/mL (≈ 0.29 µM) with Trichophyton benhamiae.

As for `O=[N+]([O-])c1cccn1CC#CI`, the MIC came out at 0.39 µg/mL (≈ 1.41 µM) in the experiment on Aspergillus fumigatus; 0.78 µg/mL (≈ 2.83 µM) in the experiment on Candida albicans; 0.39 µg/mL (≈ 1.41 µM) against Cryptococcus neoformans; 0.39 µg/mL (≈ 1.41 µM) in experiment [1]; 0.1 µg/mL (≈ 0.362 µM) in the experiment on Trichophyton benhamiae.

Consider `Cc1ccnn1CC#CI`, for which the MIC turned out to be 0.78 µg/mL (≈ 3.17 µM) against Aspergillus fumigatus; 6.25 µg/mL (≈ 25.4 µM) against Candida albicans; 1.56 µg/mL (≈ 6.34 µM) against Cryptococcus neoformans; 0.78 µg/mL (≈ 3.17 µM) in experiment [1]; 0.39 µg/mL (≈ 1.59 µM) in the experiment on Trichophyton benhamiae.

As to `O=[N+]([O-])c1c(Cl)c(Cl)n(CC(I)=C(I)I)c1Cc1cc(Cl)cc(Cl)c1O`, the minimal inhibitory concentration (MIC) against Aspergillus fumigatus is above 25 µg/mL; in the experiment with Candida albicans, above 25 µg/mL; with Cryptococcus neoformans, above 25 µg/mL; in experiment [1] it was 25 µg/mL (≈ 32.3 µM); against Trichophyton benhamiae it was 25 µg/mL (≈ 32.3 µM).

As for `Clc1cc(Cl)cc(-c2nnn(CC#CI)n2)c1`, the minimal inhibitory concentration (MIC) against Aspergillus fumigatus amounted to 1.56 µg/mL (≈ 4.12 µM); with Candida albicans, 1.56 µg/mL (≈ 4.12 µM); in the experiment with Cryptococcus neoformans, 0.39 µg/mL (≈ 1.03 µM); in experiment [1], 0.1 µg/mL (≈ 0.264 µM); with Trichophyton benhamiae, 0.1 µg/mL (≈ 0.264 µM).

As for `Cc1cncn1CC(I)=C(I)I`, the MIC is 3.13 µg/mL (≈ 6.26 µM) in the experiment on Aspergillus fumigatus; 12.5 µg/mL (≈ 25 µM) with Candida albicans; 12.5 µg/mL (≈ 25 µM) with Cryptococcus neoformans; 1.56 µg/mL (≈ 3.12 µM) in experiment [1]; 1.56 µg/mL (≈ 3.12 µM) with Trichophyton benhamiae.

Turning to `CC(C)(C)c1nnnn1CC#CI`, the minimum inhibitory concentration (MIC) is 6.25 µg/mL (≈ 21.5 µM) against Aspergillus fumigatus; 12.5 µg/mL (≈ 43.1 µM) with Candida albicans; 25 µg/mL (≈ 86.2 µM) against Cryptococcus neoformans; 0.78 µg/mL (≈ 2.69 µM) in experiment [1]; 3.13 µg/mL (≈ 10.8 µM) against Trichophyton benhamiae.

As to `O=[N+]([O-])c1ccn(CC#CI)c1`, the MIC in the experiment with Aspergillus fumigatus was determined as 0.1 µg/mL (≈ 0.362 µM); in the experiment on Candida albicans, 0.78 µg/mL (≈ 2.83 µM); with Cryptococcus neoformans, 0.1 µg/mL (≈ 0.362 µM); in experiment [1], 0.78 µg/mL (≈ 2.83 µM); in the experiment with Trichophyton benhamiae, 0.2 µg/mL (≈ 0.725 µM).

Take `IC#CCn1ncnn1`: the minimal inhibitory concentration (MIC) with Aspergillus fumigatus came to 0.39 µg/mL (≈ 1.67 µM); against Candida albicans, 1.56 µg/mL (≈ 6.67 µM); in the experiment with Cryptococcus neoformans, 0.39 µg/mL (≈ 1.67 µM); in experiment [1], 0.78 µg/mL (≈ 3.33 µM); with Trichophyton benhamiae, 0.78 µg/mL (≈ 3.33 µM).

In the case of `COc1ccc(-c2nnnn2CC#CI)cc1`, the MIC is 0.78 µg/mL (≈ 2.29 µM) in the experiment on Aspergillus fumigatus; 25 µg/mL (≈ 73.5 µM) against Candida albicans; 25 µg/mL (≈ 73.5 µM) in the experiment on Cryptococcus neoformans; 0.2 µg/mL (≈ 0.588 µM) in experiment [1]; 0.1 µg/mL (≈ 0.294 µM) in the experiment on Trichophyton benhamiae.

Turning to `IC#CCn1nnc(Cc2ccccc2)n1`, the minimal inhibitory concentration (MIC) against Aspergillus fumigatus is 0.78 µg/mL (≈ 2.41 µM); against Candida albicans, 6.25 µg/mL (≈ 19.3 µM); in the experiment on Cryptococcus neoformans it was 6.25 µg/mL (≈ 19.3 µM); in experiment [1], 0.1 µg/mL (≈ 0.309 µM); against Trichophyton benhamiae it was 0.1 µg/mL (≈ 0.309 µM).

In the case of `O=[N+]([O-])c1ccc(-c2nnn(CC(I)=C(I)I)n2)cc1`, the MIC (against Aspergillus fumigatus; in the experiment on Candida albicans; in the experiment with Cryptococcus neoformans; in experiment [1]; with Trichophyton benhamiae) was above 100 µg/mL throughout.

Take `IC#CCn1nnnc1Cc1ccccc1`: the minimum inhibitory concentration (MIC) against Aspergillus fumigatus came to 1.56 µg/mL (≈ 4.81 µM); against Candida albicans, 12.5 µg/mL (≈ 38.6 µM); against Cryptococcus neoformans, 12.5 µg/mL (≈ 38.6 µM); in experiment [1], 0.39 µg/mL (≈ 1.2 µM); in the experiment with Trichophyton benhamiae, 0.78 µg/mL (≈ 2.41 µM).

`COC(=O)c1cc([N+](=O)[O-])cn1CC(I)=C(I)I`: the minimum inhibitory concentration (MIC) was 1.56 µg/mL (≈ 2.65 µM) against Aspergillus fumigatus; 3.13 µg/mL (≈ 5.32 µM) against Candida albicans; 3.13 µg/mL (≈ 5.32 µM) with Cryptococcus neoformans; 0.39 µg/mL (≈ 0.663 µM) in experiment [1]; 0.39 µg/mL (≈ 0.663 µM) in the experiment on Trichophyton benhamiae.

As to `IC(I)=C(I)Cn1nnc(C2CC2)n1`, the MIC amounted to 0.39 µg/mL (≈ 0.739 µM) in the experiment with Aspergillus fumigatus; 3.13 µg/mL (≈ 5.93 µM) with Candida albicans; 3.13 µg/mL (≈ 5.93 µM) against Cryptococcus neoformans; 0.2 µg/mL (≈ 0.379 µM) in experiment [1]; 0.2 µg/mL (≈ 0.379 µM) in the experiment with Trichophyton benhamiae.

Regarding `CCOCCc1nnnn1CC(I)=C(I)I`, the MIC with Aspergillus fumigatus was found to be 3.13 µg/mL (≈ 5.59 µM); against Candida albicans it was 6.25 µg/mL (≈ 11.2 µM); against Cryptococcus neoformans, 6.25 µg/mL (≈ 11.2 µM); in experiment [1], 1.56 µg/mL (≈ 2.79 µM); against Trichophyton benhamiae it was 0.1 µg/mL (≈ 0.179 µM).

`IC(I)=C(I)Cn1ccnn1`: the MIC came out at 0.78 µg/mL (≈ 1.6 µM) with Aspergillus fumigatus; 3.13 µg/mL (≈ 6.43 µM) against Candida albicans; 6.25 µg/mL (≈ 12.8 µM) against Cryptococcus neoformans; 0.78 µg/mL (≈ 1.6 µM) in experiment [1]; 0.39 µg/mL (≈ 0.801 µM) with Trichophyton benhamiae.
